Test results from patent US11524966B1 (Valo Early Discovery, Inc., priority 2017, dated 2022).

Target: T1, USP25 (USP25-His6, Boston Biochem E-546) (Homo sapiens, UniProt Q9UHP3)
T1 construct: His6; purchased Boston Biochem E-546
T1 sequence (Q9UHP3 1-1055): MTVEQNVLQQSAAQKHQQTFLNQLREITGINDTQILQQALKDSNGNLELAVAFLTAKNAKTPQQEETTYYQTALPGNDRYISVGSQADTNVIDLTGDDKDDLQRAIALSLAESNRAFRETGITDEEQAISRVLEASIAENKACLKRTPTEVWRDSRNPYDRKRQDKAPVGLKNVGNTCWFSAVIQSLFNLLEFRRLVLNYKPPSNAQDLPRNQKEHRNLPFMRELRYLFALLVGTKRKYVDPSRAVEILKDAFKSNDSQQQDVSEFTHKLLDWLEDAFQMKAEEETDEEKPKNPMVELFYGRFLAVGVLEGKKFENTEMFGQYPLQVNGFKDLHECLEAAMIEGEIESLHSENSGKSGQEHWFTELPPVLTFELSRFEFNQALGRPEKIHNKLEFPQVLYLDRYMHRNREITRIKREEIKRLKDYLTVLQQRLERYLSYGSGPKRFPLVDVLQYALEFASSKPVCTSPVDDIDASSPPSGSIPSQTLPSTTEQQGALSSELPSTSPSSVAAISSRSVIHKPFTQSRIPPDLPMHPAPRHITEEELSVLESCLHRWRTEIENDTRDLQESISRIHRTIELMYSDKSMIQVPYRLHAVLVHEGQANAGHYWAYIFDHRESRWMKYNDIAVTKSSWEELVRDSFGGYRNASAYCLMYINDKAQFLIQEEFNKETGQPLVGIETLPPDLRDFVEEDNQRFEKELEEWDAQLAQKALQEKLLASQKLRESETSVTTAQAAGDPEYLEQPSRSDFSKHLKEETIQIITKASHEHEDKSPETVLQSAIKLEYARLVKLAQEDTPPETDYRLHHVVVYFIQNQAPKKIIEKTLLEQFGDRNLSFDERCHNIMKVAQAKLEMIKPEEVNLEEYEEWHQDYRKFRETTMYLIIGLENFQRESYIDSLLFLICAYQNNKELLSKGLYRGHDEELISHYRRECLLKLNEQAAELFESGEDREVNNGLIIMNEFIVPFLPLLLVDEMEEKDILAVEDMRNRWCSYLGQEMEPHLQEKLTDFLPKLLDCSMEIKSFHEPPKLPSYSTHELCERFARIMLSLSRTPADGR
Assay: Ubiquitin-Rhodamine 110 Assay for USP25 Activity, Example A-2
Assay type: biochemical
Details: Ubiquitin-Rhodamine 110 assay, Example A-2; read-out: USP25 A-2 IC50 range
Summary of the method: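 Inhibition is quantified as IC50 by 4-parameter fit of fluorescence (485/535 nm) from Ub-Rh110 hydrolysis. Enzyme USP25-His6 at 75 pM with 30 min compound preincubation, then 25 nM substrate for 45 min at room temperature in pH 8.0 Tris buffer containing BME.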

SMILES: Cc1ccc2c(N)c(C(=O)N[C@H]3COc4cc(N5C[C@@H](N)[C@@H](F)C5)ccc4C3)sc2n1 (single isomer, unassigned) [Example 3-5]
- IC50: 200 to 2000 nM

SMILES: Cc1ccc2c(N)c(C(=O)N[C@H]3COc4cc(N5C[C@@H](F)[C@@H](N)C5)ccc4C3)sc2n1 (single isomer, unassigned) [Example 3-6]
- IC50: 200 to 2000 nM

SMILES: COC[C@@H]1CN(c2nc3c(cc2F)C[C@H](NC(=O)c2sc4nc(C)ccc4c2N)CC3)C[C@@H]1N (single isomer, unassigned) [Example 302]
- IC50: 200 to 2000 nM

SMILES: COC[C@H]1CN(c2nc3c(cc2F)C[C@H](NC(=O)c2sc4nc(C)ccc4c2N)CC3)C[C@H]1N (single isomer, unassigned) [Example 303]
- IC50: > 2000 nM

SMILES: CO[C@H]1CCN(c2ccc3c(n2)CC[C@H](NC(=O)c2sc4nc(C)ccc4c2N)C3)C[C@@H]1N (single isomer, unassigned) [Example 315]
- IC50: 200 to 2000 nM

SMILES: CO[C@@H]1CCN(c2ccc3c(n2)CC[C@H](NC(=O)c2sc4nc(C)ccc4c2N)C3)C[C@H]1N (single isomer, unassigned) [Example 316]
- IC50: > 2000 nM

SMILES: CCOC1CN(c2ccc3c(c2)OC[C@H](NC(=O)c2sc4nc(C)cc(C)c4c2N)C3)C[C@@H]1N (stereo in doubt) [Example 323, 3-amino-N-[(3R)-7-[(3S,4R)-3-amino-4-ethoxypyrrolidin-1-yl]-3,4-dihydro-2H-1-benzopyran-3-yl]-4,6-dimethylthieno[2,3-b]pyridine-2-carboxamide]
- IC50: 50 to 200 nM

SMILES: COC[C@@]1(C)CN(c2ccc3c(n2)CC[C@H](NC(=O)c2sc4nc(C)ccc4c2N)C3)CC1N (stereo in doubt) [Example 343, 3-amino-N-[(6S)-2-[(3S,4S)-4-amino-3-(methoxymethyl)-3-methylpyrrolidin-1-yl]-5,6,7,8-tetrahydroquinolin-6-yl]-6-methylthieno[2,3-b]pyridine-2-carboxamide]
- IC50: 200 to 2000 nM

SMILES: COC[C@H]1C[C@H](N)CN1c1ccc2c(c1)OC[C@H](NC(=O)c1sc3nc(C)ccc3c1N)C2 [Example 261, 3-amino-N-[(3R)-7-[(2R,4S)-4-amino-2-(methoxymethyl)pyrrolidin-1-yl]-3,4-dihydro-2H-1-benzopyran-3-yl]-6-methylthieno[2,3-b]pyridine-2-carboxamide]
- IC50: 50 to 200 nM

SMILES: COC[C@H]1C[C@@H](N)CN1c1ccc2c(c1)OC[C@H](NC(=O)c1sc3nc(C)ccc3c1N)C2 [Example 262, 3-amino-N-[(3R)-7-[(2R,4R)-4-amino-2-(methoxymethyl)pyrrolidin-1-yl]-3,4-dihydro-2H-1-benzopyran-3-yl]-6-methylthieno[2,3-b]pyridine-2-carboxamide]
- IC50: 200 to 2000 nM

SMILES: COC[C@@H]1C[C@H](N)CN1c1ccc2c(c1)OC[C@H](NC(=O)c1sc3nc(C)ccc3c1N)C2 [Example 263, 3-amino-N-[(3R)-7-[(2S,4S)-4-amino-2-(methoxymethyl)pyrrolidin-1-yl]-3,4-dihydro-2H-1-benzopyran-3-yl]-6-methylthieno[2,3-b]pyridine-2-carboxamide]
- IC50: 50 to 200 nM

SMILES: N#Cc1c(N2CC3CCC(C2)N3)cc2c(c1F)C[C@@H](NC(=O)c1cnc3c(c1)[C@@H]1C[C@@H]1CN3)CO2 [Example 264, (6aS,7aR)-N-[(3R)-6-cyano-7-{3,8-diazabicyclo[3.2.1]octan-3-yl}-5-fluoro-3,4-dihydro-2H-1-benzopyran-3-yl]-5H,6H,6aH,7H,7aH-cyclopropa[c]1,8-naphthyridine-2-carboxamide]
- IC50: 1 to 50 nM

SMILES: N#Cc1c(N2CC3CCC(C2)N3)cc2c(c1F)C[C@@H](NC(=O)c1cnc3c(c1)[C@H]1C[C@H]1CN3)CO2 [Example 265, (6aR,7aS)-N-[(3R)-6-cyano-7-{3,8-diazabicyclo[3.2.1]octan-3-yl}-5-fluoro-3,4-dihydro-2H-1-benzopyran-3-yl]-5H,6H,6aH,7H,7aH-cyclopropa[c]1,8-naphthyridine-2-carboxamide]
- IC50: 200 to 2000 nM

SMILES: CO[C@H]1CN(c2ccc3c(n2)CC[C@H](NC(=O)c2sc4nc(C)cnc4c2N)C3)C[C@@H]1NC(C)=O [Example 266, 7-amino-N-[(6S)-2-[(3S,4S)-3-acetamido-4-methoxypyrrolidin-1-yl]-5,6,7,8-tetrahydroquinolin-6-yl]-3-methylthieno[2,3-b]pyrazine-6-carboxamide]
- IC50: > 2000 nM

SMILES: CCO[C@@H]1CN(c2ccc3c(c2)CC[C@H](NC(=O)c2sc4nc(C)ccc4c2N)C3)C[C@@H]1N [Example 267, 3-amino-N-[(2S)-6-[(3S,4R)-3-amino-4-ethoxypyrrolidin-1-yl]-1,2,3,4-tetrahydronaphthalen-2-yl]-6-methylthieno[2,3-b]pyridine-2-carboxamide]
- IC50: 200 to 2000 nM

SMILES: CCO[C@H]1CN(c2ccc3c(c2)CC[C@H](NC(=O)c2sc4nc(C)ccc4c2N)C3)C[C@H]1N [Example 268, 3-amino-N-[(2S)-6-[(3R,4S)-3-amino-4-ethoxypyrrolidin-1-yl]-1,2,3,4-tetrahydronaphthalen-2-yl]-6-methylthieno[2,3-b]pyridine-2-carboxamide]
- IC50: > 2000 nM

SMILES: CO[C@@H]1CN(c2ccc3c(n2)CC[C@H](NC(=O)c2sc4nc(C)ccc4c2N)C3)C[C@@H]1N [Example 269, 3-amino-N-[(6S)-2-[(3S,4R)-3-amino-4-methoxypyrrolidin-1-yl]-5,6,7,8-tetrahydroquinolin-6-yl]-6-methylthieno[2,3-b]pyridine-2-carboxamide]
- IC50: > 2000 nM

SMILES: CO[C@H]1CN(c2ccc3c(n2)CC[C@H](NC(=O)c2sc4nc(C)ccc4c2N)C3)C[C@H]1N [Example 270, 3-amino-N-[(6S)-2-[(3R,4S)-3-amino-4-methoxypyrrolidin-1-yl]-5,6,7,8-tetrahydroquinolin-6-yl]-6-methylthieno[2,3-b]pyridine-2-carboxamide]
- IC50: > 2000 nM

SMILES: COC[C@@H]1CN(c2ccc3c(c2)OC[C@H](NC(=O)c2sc4nc(C)cc(C)c4c2N)C3)C[C@@H]1N [Example 275, 3-amino-N-[(3R)-7-[(3R,4R)-3-amino-4-(methoxymethyl)pyrrolidin-1-yl]-3,4-dihydro-2H-1-benzopyran-3-yl]-4,6-dimethylthieno[2,3-b]pyridine-2-carboxamide]
- IC50: 200 to 2000 nM

SMILES: COC[C@H]1CN(c2ccc3c(c2)OC[C@H](NC(=O)c2sc4nc(C)cc(C)c4c2N)C3)C[C@H]1N [Example 276, 3-amino-N-[(3R)-7-[(3S,4S)-3-amino-4-(methoxymethyl)pyrrolidin-1-yl]-3,4-dihydro-2H-1-benzopyran-3-yl]-4,6-dimethylthieno[2,3-b]pyridine-2-carboxamide]
- IC50: 50 to 200 nM

SMILES: COC[C@@H]1CN(c2cc(F)c3c(c2F)OC[C@H](NC(=O)c2sc4nc(C)cc(C)c4c2N)C3)C[C@@H]1N [Example 277, 3-amino-N-[(3R)-7-[(3R,4R)-3-amino-4-(methoxymethyl)pyrrolidin-1-yl]-5,8-difluoro-3,4-dihydro-2H-1-benzopyran-3-yl]-4,6-dimethylthieno[2,3-b]pyridine-2-carboxamide]
- IC50: 200 to 2000 nM

SMILES: COC[C@H]1CN(c2cc(F)c3c(c2F)OC[C@H](NC(=O)c2sc4nc(C)cc(C)c4c2N)C3)C[C@H]1N [Example 278, 3-amino-N-[(3R)-7-[(3S,4S)-3-amino-4-(methoxymethyl)pyrrolidin-1-yl]-5,8-difluoro-3,4-dihydro-2H-1-benzopyran-3-yl]-4,6-dimethylthieno[2,3-b]pyridine-2-carboxamide]
- IC50: 50 to 200 nM

SMILES: CO[C@@]1(C)CN(c2ccc3c(n2)CC[C@H](NC(=O)c2sc4nc(C)cnc4c2N)C3)C[C@@H]1N [Example 279, 7-amino-N-[(6S)-2-[(3S,4S)-4-amino-3-methoxy-3-methylpyrrolidin-1-yl]-5,6,7,8-tetrahydroquinolin-6-yl]-3-methylthieno[2,3-b]pyrazine-6-carboxamide]
- IC50: > 2000 nM

SMILES: CO[C@]1(C)CN(c2ccc3c(n2)CC[C@H](NC(=O)c2sc4nc(C)cnc4c2N)C3)C[C@H]1N [Example 280, 7-amino-N-[(6S)-2-[(3R,4R)-4-amino-3-methoxy-3-methylpyrrolidin-1-yl]-5,6,7,8-tetrahydroquinolin-6-yl]-3-methylthieno[2,3-b]pyrazine-6-carboxamide]
- IC50: > 2000 nM

SMILES: CO[C@@]1(C)CN(c2ccc3c(c2)OC[C@H](NC(=O)c2sc4nc(C)ccc4c2N)C3)C[C@@H]1N [Example 281, 3-amino-N-[(3R)-7-[(3S,4S)-4-amino-3-methoxy-3-methylpyrrolidin-1-yl]-3,4-dihydro-2H-1-benzopyran-3-yl]-6-methylthieno[2,3-b]pyridine-2-carboxamide]
- IC50: 200 to 2000 nM
